Patent US20060069132A1, “Azolecarboxamide herbicides” (priority 2004, published 2006)
Where two headings read alike, the source gives them in different places.

Experiments:
large crabgrass [1] = assay: Test B pre-/postemergence herbicide test; type: in vivo, Digitaria sanguinalis; details: for pest or weed control at 500 g/ha / pest or weed control at 125 g/ha: Digitaria sanguinalis
Procedure, shortened: (§1)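 Seeds were planted and treated preemergence with compounds formulated in a non-phytotoxic solvent mixture containing surfactant, while plants at the 1- to 4-leaf stage (2 to 18 cm) received postemergence sprays. Flooded paddy plants were grown to the 2-leaf stage. After 13 to 15 days in a greenhouse, injury was visually rated 0–100 against untreated controls.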

barnyardgrass = assay: Test C flooded paddy test; type: in vivo, Echinochloa crus-galli; details: for Plant response rating, Barnyardgrass: 500 g ai/ha, visual rating after 12 to 14 days
Procedure, shortened: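 Scoring by eye, 12–14 days post-treatment, greenhouse-held plants vs. controls; 0 no effect, 100 complete control. Sprayed at 1–4 leaves (2–18 cm); paddy barnyardgrass at 2 leaves, flooded.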

rice = assay: Test B pre-/postemergence herbicide test; type: in vivo, Oryza sativa; details: preemergence
Procedure, shortened: as §1

Surinam grass = assay: Test B pre-/postemergence herbicide test; type: in vivo, Urochloa decumbens
Procedure, shortened: as §1

morningglory = assay: Test C pre-/postemergence herbicide test; type: in vivo, Ipomoea coccinea
Procedure, shortened: (§2)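 Preemergence: seeds planted and treated with compound in non-phytotoxic solvent with surfactant; postemergence: plants at 2 to 18 cm (1- to 4-leaf stage) sprayed likewise. Kept in greenhouse 12 to 14 days, then visually rated against controls, 0 (no effect) to 100 (complete control).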

cocklebur = assay: Test C pre-/postemergence herbicide test; type: in vivo, Xanthium strumarium; details: Xanthium strumarium, post-emergence, 312 h
Procedure, shortened: as §2

yellow nutsedge = assay: Test C pre-/postemergence herbicide test; type: in vivo, Cyperus esculentus
Procedure, shortened: as §2

large crabgrass [2] = assay: Test C pre-/postemergence herbicide test; type: in vivo, Digitaria sanguinalis
Procedure, shortened: as §2

johnsongrass = assay: Test C pre-/postemergence herbicide test; type: in vivo, Sorghum halepense
Procedure, shortened: as §2

[3] = 500 g ai/ha, visual rating 0-100, 0 no effect, 100 complete control, preemergence
[4] = postemergence, 125 g ai/ha, visual rating, scale 0 (no effect) to 100 (complete control)
[5] = postemergence, 500 g ai/ha, visual rating, scale 0 (no effect) to 100 (complete control)
[6] = preemergence, 125 g ai/ha, 0 to 100 scale, 0 is no effect, 100 is complete control
[7] = 62 g ai/ha, scale 0 to 100 (0 no effect, 100 complete control)
[8] = 125 g ai/ha, scale of 0 to 100, 0 is no effect, 100 is complete control
[9] = 250 g ai/ha, scale of 0 to 100, 0 is no effect, 100 is complete control
[10] = scale 0 to 100 (0 no effect, 100 complete control)
[11] = 125 g ai/ha, 0 to 100 scale, 0 is no effect, 100 is complete control
[12] = Postemergence, 500 g ai/ha, scale 0 to 100
[13] = 125 g ai/ha, 0 = no effect, 100 = complete control, preemergence
[14] = 500 g ai/ha, visual rating, 0 = no effect, 100 = complete control, preemergence
[15] = postemergence, 500 g ai/ha, scale 0 to 100, 0 is no effect, 100 is complete control
[16] = 125 g ai/ha, scale 0 to 100 (0 no effect, 100 complete control)
[17] = 125 g ai/ha, 0 = no effect, 100 = complete control
[18] = 500 g ai/ha, visual rating, 0 = no effect, 100 = complete control

Structure (SMILES): CCn1nc(C(C)(C)C)cc1C(=O)Nc1cccc(C(C)=O)c1 [Compound 122]
- Plant response rating, Crabgrass, Large (large crabgrass [1]; [3]): 100
- Crabgrass, Large plant response rating (large crabgrass [1]; [4]): 10
- Crabgrass, Large plant response rating (large crabgrass [1]; [5]): 10
- Plant response rating, Crabgrass, Large (large crabgrass [1]; [6]): 90
- Barnyardgrass plant response rating (barnyardgrass; [7]): 20
- Barnyardgrass plant response rating (barnyardgrass; [8]): 50
- Barnyardgrass plant response rating (barnyardgrass; [9]): 60
- Plant response rating, Barnyardgrass (barnyardgrass; [10]): 80
- Plant response rating, Rice (rice; [11]): 20
- Plant response rating, Surinam Grass (Surinam grass; [3]): 70
- Surinam Grass plant response rating (Surinam grass; [4]): 10
- Surinam Grass plant response rating (Surinam grass; [5]): 10
- Plant response rating, Surinam Grass (Surinam grass; [6]): 20

Structure (SMILES): CCn1nc(C(C)(C)C)cc1C(=O)Nc1cccc(C(=O)OCCF)c1 [Compound 82, 2-fluoroethyl 3-[[[3-(1,1-dimethylethyl)-1-ethyl-1H-pyrazol-5-yl]-carbonyl]amino]benzoate]
- pest or weed control at 500 g/ha (large crabgrass [1]; post-emergence, Postemergence, 500 g ai/ha, visual rating after 13 to 15 days, scale 0 (no effect) to 100 (complete control), read-out: Plant response rating, Crabgrass, Large): 20%
- pest or weed control at 125 g/ha (large crabgrass [1]; post-emergence, postemergence, 125 g ai/ha, visual rating, scale 0 (no effect) to 100 (complete control), read-out: Crabgrass, Large plant response rating): 10%
- pest or weed control at 500 g/ha (large crabgrass [1]; pre-emergence, Preemergence, 500 g ai/ha, scale 0 to 100, read-out: Crabgrass, Large plant response rating): 0%
- pest or weed control at 125 g/ha (large crabgrass [1]; pre-emergence, preemergence, 125 g ai/ha, 0 to 100 scale, 0 is no effect, 100 is complete control, read-out: Plant response rating, Crabgrass, Large): 0%
- pest or weed control at 250 g/ha (morningglory; Ipomoea, post-emergence, Postemergence, 250 g ai/ha, scale 0 to 100, 0 no effect, 100 complete control, read-out: Plant response rating, Morningglory): 50%
- pest or weed control at 125 g/ha (morningglory; Ipomoea, post-emergence, postemergence, 125 g ai/ha, scale 0 to 100, read-out: Plant response rating, Morningglory): 10%
- pest or weed control at 62 g/ha (morningglory; Ipomoea, post-emergence, postemergence, 62 g ai/ha, scale 0 to 100, read-out: Plant response rating, Morningglory): 10%
- Morningglory plant response rating (morningglory; [12]): 50
- plant injury at 125 g/ha (rice; Oryza sativa, pre-emergence, 336 h, 125 g ai/ha, 0 to 100 scale, 0 is no effect, 100 is complete control, read-out: Plant response rating, Rice): 0%
- pest or weed control at 500 g/ha (Surinam grass; Urochloa decumbens, post-emergence, Postemergence, 500 g ai/ha, visual rating after 13 to 15 days, scale 0 (no effect) to 100 (complete control), read-out: Plant response rating, Surinam Grass): 60%
- pest or weed control at 125 g/ha (Surinam grass; Urochloa decumbens, post-emergence, postemergence, 125 g ai/ha, visual rating, scale 0 (no effect) to 100 (complete control), read-out: Surinam Grass plant response rating): 30%
- pest or weed control at 125 g/ha (Surinam grass; Urochloa decumbens, pre-emergence, preemergence, 125 g ai/ha, 0 to 100 scale, 0 is no effect, 100 is complete control, read-out: Plant response rating, Surinam Grass): 0%
- pest or weed control at 500 g/ha (cocklebur; Postemergence, 500 g ai/ha, scale 0 to 100, read-out: Cocklebur plant response rating): 20%
- pest or weed control at 250 g/ha (cocklebur; Postemergence, 250 g ai/ha, scale 0 to 100, 0 no effect, 100 complete control, read-out: Plant response rating, Cocklebur): 5%
- pest or weed control at 125 g/ha (cocklebur; postemergence, 125 g ai/ha, scale 0 to 100, read-out: Plant response rating, Cocklebur): 5%
- pest or weed control at 62 g/ha (cocklebur; postemergence, 62 g ai/ha, scale 0 to 100, read-out: Plant response rating, Cocklebur): 5%
- pest or weed control at 250 g/ha (yellow nutsedge; Cyperus, post-emergence, Postemergence, 250 g ai/ha, scale 0 to 100, 0 no effect, 100 complete control, read-out: Plant response rating, Nutsedge, Yellow): 5%
- pest or weed control at 125 g/ha (yellow nutsedge; Cyperus, post-emergence, postemergence, 125 g ai/ha, scale 0 to 100, read-out: Plant response rating, Nutsedge, Yellow): 5%
- pest or weed control at 62 g/ha (yellow nutsedge; Cyperus, post-emergence, postemergence, 62 g ai/ha, scale 0 to 100, read-out: Plant response rating, Nutsedge, Yellow): 0%
- Nutsedge, Yellow plant response rating (yellow nutsedge; [12]): 5
- pest or weed control at 250 g/ha (large crabgrass [2]; Digitaria sanguinalis, post-emergence, 312 h, Postemergence, 250 g ai/ha, scale 0 to 100, 0 no effect, 100 complete control, read-out: Plant response rating, Crabgrass, Large): 0%
- pest or weed control at 125 g/ha (large crabgrass [2]; Digitaria sanguinalis, post-emergence, 312 h, postemergence, 125 g ai/ha, scale 0 to 100, read-out: Plant response rating, Crabgrass, Large): 0%
- pest or weed control at 62 g/ha (large crabgrass [2]; Digitaria sanguinalis, post-emergence, 312 h, postemergence, 62 g ai/ha, scale 0 to 100, read-out: Plant response rating, Crabgrass, Large): 0%
- Crabgrass, Large plant response rating (large crabgrass [2]; [12]): 60
- Johnsongrass plant response rating (johnsongrass; [12]): 10
- pest or weed control at 250 g/ha (johnsongrass; Sorghum halepense, post-emergence, Postemergence, 250 g ai/ha, scale 0 to 100, 0 no effect, 100 complete control, read-out: Plant response rating, Johnsongrass): 5%
- pest or weed control at 125 g/ha (johnsongrass; Sorghum halepense, post-emergence, postemergence, 125 g ai/ha, scale 0 to 100, read-out: Plant response rating, Johnsongrass): 0%
- pest or weed control at 62 g/ha (johnsongrass; Sorghum halepense, post-emergence, postemergence, 62 g ai/ha, scale 0 to 100, read-out: Plant response rating, Johnsongrass): 0%

Structure (SMILES): CCn1nc(C(C)(C)C)cc1C(=O)Nc1cc(C(=O)NCC2CC2)ccn1 [Compound 155]
- Plant response rating, Crabgrass, Large (large crabgrass [1]; [3]): 100
- Crabgrass, Large plant response rating (large crabgrass [1]; [4]): 20
- Crabgrass, Large plant response rating (large crabgrass [1]; [5]): 40
- Plant response rating, Crabgrass, Large (large crabgrass [1]; [6]): 60
- Barnyardgrass plant response rating (barnyardgrass; [7]): 0
- Barnyardgrass plant response rating (barnyardgrass; [8]): 25
- Barnyardgrass plant response rating (barnyardgrass; [9]): 50
- Plant response rating, Barnyardgrass (barnyardgrass; [10]): 65
- Plant response rating, Rice (rice; 500 g ai/ha, visual rating 0-100, 0 no effect, 100 complete control): 50
- Plant response rating, Rice (rice; [11]): 20
- Plant response rating, Surinam Grass (Surinam grass; [3]): 50
- Surinam Grass plant response rating (Surinam grass; [4]): 20
- Surinam Grass plant response rating (Surinam grass; [5]): 30
- Plant response rating, Surinam Grass (Surinam grass; [6]): 10

Structure (SMILES): CCNC(=O)c1ccc(F)c(NC(=O)c2cc(C(C)(C)C)nn2CC)n1 [Compound 278]
- Crabgrass, Large plant response rating (0 to 100 scale) (large crabgrass [1]; [13]): 20
- Plant response rating, Crabgrass, Large (large crabgrass [1]; [14]): 80
- Crabgrass, Large plant response rating (large crabgrass [1]; [4]): 0
- Crabgrass, Large plant response rating (large crabgrass [1]; [15]): 10
- Barnyardgrass plant response rating (barnyardgrass; [7]): 0
- Barnyardgrass plant response rating (barnyardgrass; [16]): 0
- Barnyardgrass plant response rating (barnyardgrass; [9]): 0
- Plant response rating, Barnyardgrass (barnyardgrass; [10]): 25
- Rice plant response rating (0 to 100 scale) (rice; [17]): 30
- Plant response rating, Rice (rice; [18]): 80
- Surinam Grass plant response rating (0 to 100 scale) (Surinam grass; [13]): 20
- Plant response rating, Surinam Grass (Surinam grass; [14]): 60
- Surinam Grass plant response rating (Surinam grass; [4]): 10
- Surinam Grass plant response rating (Surinam grass; [15]): 10

Structure (SMILES): CCc1nc(C(C)(C)C)sc1C(=O)Nc1cccc(C(=O)NC(C)(C)C)n1 [Compound 216]
- Crabgrass, Large plant response rating (0 to 100 scale) (large crabgrass [1]; [13]): 0
- Plant response rating, Crabgrass, Large (large crabgrass [1]; [14]): 40
- Crabgrass, Large plant response rating (large crabgrass [1]; [4]): 0
- Crabgrass, Large plant response rating (large crabgrass [1]; [5]): 0
- Barnyardgrass plant response rating (barnyardgrass; [7]): 0
- Barnyardgrass plant response rating (barnyardgrass; [16]): 0
- Barnyardgrass plant response rating (barnyardgrass; [9]): 0
- Plant response rating, Barnyardgrass (barnyardgrass; [10]): 30
- Rice plant response rating (0 to 100 scale) (rice; [17]): 0
- Plant response rating, Rice (rice; [18]): 70
- Surinam Grass plant response rating (0 to 100 scale) (Surinam grass; [13]): 0
- Plant response rating, Surinam Grass (Surinam grass; [14]): 70
- Surinam Grass plant response rating (Surinam grass; [4]): 0
- Surinam Grass plant response rating (Surinam grass; [5]): 20
